What was measured:
[1] = system: HCT-116; assay: In vitro inhibitory activity against Paclitaxel resistant colon carcinoma HCT VM46 cell line was determined.; type: functional, cell-based; settings: Homo sapiens
[2] = target: Tubulin alpha chain (Sus scrofa) (UniProt P02550); assay: Potency to that of potency of paclitaxel in Tubulin polymerization assay; type: functional
[3] = system: A2780; assay: In vitro inhibitory activity against Ovarian A2780 cell line was determined.; type: functional, cell-based; settings: Homo sapiens
[4] = system: HCT-116; assay: In vitro inhibitory activity against colon carcinoma HCT 116 cell line was determined.; type: functional, cell-based; settings: Homo sapiens

Tubulin alpha chain (Sus scrofa), sequence (P02550 whole entry, looked up): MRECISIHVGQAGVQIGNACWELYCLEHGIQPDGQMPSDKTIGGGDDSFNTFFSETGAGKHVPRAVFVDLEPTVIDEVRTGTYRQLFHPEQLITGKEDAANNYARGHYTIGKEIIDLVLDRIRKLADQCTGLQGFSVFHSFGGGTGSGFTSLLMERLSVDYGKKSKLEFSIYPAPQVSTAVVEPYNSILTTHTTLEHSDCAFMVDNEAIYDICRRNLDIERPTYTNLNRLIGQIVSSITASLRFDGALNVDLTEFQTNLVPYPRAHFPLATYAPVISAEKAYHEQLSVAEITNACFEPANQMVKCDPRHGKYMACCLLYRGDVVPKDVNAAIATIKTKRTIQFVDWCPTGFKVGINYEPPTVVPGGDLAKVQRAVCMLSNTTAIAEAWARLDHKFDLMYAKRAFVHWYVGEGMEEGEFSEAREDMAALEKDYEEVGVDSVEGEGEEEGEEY

| SMILES | IC50 [1] [nM] | Ratio [2] | IC50 [3] [nM] | IC50 [4] [nM] |
| --- | --- | --- | --- | --- |
| COCO[C@H]1CC2OC[C@@]2(OC(C)=O)C2[C@H](OC(=O)c3ccccc3)C3(O)C[C@H](OC(=O)[C@H](O)[C@@H](NC(=O)c4ccccc4)c4ccccc4)C(C)=C(C3(C)C)[C@@]3(CO3)C(=O)[C@@]21C (some centres not stated) | 14 | 0.7 | 1.8 | 1.5 |
| CC(=O)O[C@@]12COC1C[C@H](O)[C@@]1(C)C(=O)[C@@]3(CO3)C3=C(C)[C@@H](OC(=O)[C@H](O)[C@@H](NC(=O)c4ccccc4)c4ccccc4)CC(O)([C@@H](OC(=O)c4ccccc4)C21)C3(C)C (some centres not stated) | > 121 | 0.5 | 2.5 | 2 |
| CC(=O)O[C@H]1C(=O)[C@@]2(C)C([C@H](OC(=O)c3ccccc3)C3(O)C[C@H](OC(=O)[C@H](O)[C@@H](NC(=O)c4ccccc4)c4ccccc4)C(C)=C1C3(C)C)[C@]1(OC(C)=O)COC1C[C@@H]2O (some centres not stated) | > 118 | 1 | 3.5 | 2.9 |

— ChEMBL document CHEMBL1134759, “Synthesis of a novel C-10 spiro-epoxide of paclitaxel” (Bioorg Med Chem Lett, 2001)
